# Calls of active or inactive are those of the source. The rule behind the calls is not given here.
# Experiments:
# [1] = Drug internalization in human HeLa cells at 1 uM by RP-HPLC-MS analysis; assay type: ADME, cell-based
# [2] = test system: HeLa; experiment: Inhibition of protein synthesis in human HeLa cells at 50 to 500 uM pre-incubated for 1 hr before L-[35S]-cysteine and L-[35S]-methionine addition and measured after 1 hr by Comassie staining based autoradiography; assay type: functional, cell-based
compound,measurement,setting,value
C/C=C(\C)C(=O)O[C@H]1[C@H](O)[C@]2(COC(C)=O)[C@@H](O)C[C@]3(C)C(=CC[C@@H]4[C@@]5(C)CC[C@H](O[C@@H]6O[C@H](C(=O)NCC)[C@@H](O)[C@H](O)[C@H]6O)[C@@](C)(CO)[C@@H]5CC[C@]43C)[C@@H]2CC1(C)C,Drug uptake,[1],15%
same,inhibition,[2],inactive

# — ChEMBL document CHEMBL4270485, “Determination of Gymnemic Acid I as a Protein Biosynthesis Inhibitor Using Chemical Proteomics” (J Nat Prod, 2017)
